US20230172206A1 (BASF SE, priority 2020, published 2023)

Columns and labels:
[1] = test system: Phakopsora pachyrhizi (F129L); experiment: Protective control of soybean rust on soybeans (PHAKPA P6); assay type: in vivo; conditions: soybean rust F129L isolate; for % PHAKPA (F129L) Disease level P6 at 4 ppm: protective P6, 4 ppm; for % PHAKPA (F129L) Disease level P6 at 16 ppm: protective P6, 16 ppm
[2] = test system: Phakopsora pachyrhizi (F129L); experiment: Protective control of soybean rust on soybeans (PHAKPA P2); assay type: in vivo; conditions: soybean rust F129L isolate; for % PHAKPA (F129L) Disease level P2 at 4 ppm: protective P2, 4 ppm; for % PHAKPA (F129L) Disease level P2 at 16 ppm: protective P2, 16 ppm

CNC(=O)/C(=N/OC)c1cccc(C)c1CO/N=C(\C)c1ccc(C)cc1C(F)(F)F [compound 327]
% PHAKPA (F129L) Disease level P6 at 4 ppm [1]: 48%
% PHAKPA (F129L) Disease level P6 at 16 ppm [1]: 4%
% PHAKPA (F129L) Disease level P2 at 4 ppm [2]: 23%
% PHAKPA (F129L) Disease level P2 at 16 ppm [2]: 3%

CO/N=C(/C(=O)OC)c1cccc(C)c1CO/N=C(\C)c1ccc(OC)cc1C(F)(F)F [compound 328]
% PHAKPA (F129L) Disease level P6 at 4 ppm [1]: 23%
% PHAKPA (F129L) Disease level P6 at 16 ppm [1]: 5%
% PHAKPA (F129L) Disease level P2 at 4 ppm [2]: 33%
% PHAKPA (F129L) Disease level P2 at 16 ppm [2]: 8%

CNC(=O)/C(=N/OC)c1cccc(C)c1CO/N=C(\C)c1ccccc1OC1CC1 [compound 329]
% PHAKPA (F129L) Disease level P6 at 4 ppm [1]: 100%
% PHAKPA (F129L) Disease level P6 at 16 ppm [1]: 73%
% PHAKPA (F129L) Disease level P2 at 4 ppm [2]: 100%
% PHAKPA (F129L) Disease level P2 at 16 ppm [2]: 53%

CO/N=C(/C(=O)OC)c1cccc(C)c1CO/N=C(\C)c1cccc(F)c1C(F)(F)F [compound 330]
% PHAKPA (F129L) Disease level P6 at 4 ppm [1]: 93%
% PHAKPA (F129L) Disease level P6 at 16 ppm [1]: 17%
% PHAKPA (F129L) Disease level P2 at 4 ppm [2]: 83%
% PHAKPA (F129L) Disease level P2 at 16 ppm [2]: 24%

CO/N=C(/C(=O)OC)c1cccc(C)c1CO/N=C(\C)c1ccc(Oc2ccc(Cl)cc2)cc1C(F)(F)F [compound 335]
% PHAKPA (F129L) Disease level P6 at 4 ppm [1]: 80%
% PHAKPA (F129L) Disease level P6 at 16 ppm [1]: 25%
% PHAKPA (F129L) Disease level P2 at 4 ppm [2]: 77%
% PHAKPA (F129L) Disease level P2 at 16 ppm [2]: 53%

CNC(=O)/C(=N/OC)c1cccc(C)c1CO/N=C(\C)c1ccc(Oc2ccc(Cl)cc2)cc1C(F)(F)F [compound 336]
% PHAKPA (F129L) Disease level P6 at 4 ppm [1]: 50%
% PHAKPA (F129L) Disease level P6 at 16 ppm [1]: 17%
% PHAKPA (F129L) Disease level P2 at 4 ppm [2]: 63%
% PHAKPA (F129L) Disease level P2 at 16 ppm [2]: 20%

CNC(=O)/C(=N/OC)c1cccc(C)c1CO/N=C(\C)c1ccc(OC)cc1OC(F)(F)F [compound 337]
% PHAKPA (F129L) Disease level P6 at 4 ppm [1]: 13%
% PHAKPA (F129L) Disease level P6 at 16 ppm [1]: 1%
% PHAKPA (F129L) Disease level P2 at 4 ppm [2]: 9%
% PHAKPA (F129L) Disease level P2 at 16 ppm [2]: 0%

CNC(=O)/C(=N/OC)c1cccc(C)c1CO/N=C(\C)c1ccc(C)cc1OC(F)(F)F [compound 340]
% PHAKPA (F129L) Disease level P6 at 4 ppm [1]: 42%
% PHAKPA (F129L) Disease level P6 at 16 ppm [1]: 7%
% PHAKPA (F129L) Disease level P2 at 4 ppm [2]: 23%
% PHAKPA (F129L) Disease level P2 at 16 ppm [2]: 4%

CNC(=O)/C(=N/OC)c1cccc(C)c1CO/N=C(\C)c1c(F)cc(F)cc1OC(F)(F)F [compound 344]
% PHAKPA (F129L) Disease level P6 at 4 ppm [1]: 16%
% PHAKPA (F129L) Disease level P6 at 16 ppm [1]: 0%
% PHAKPA (F129L) Disease level P2 at 4 ppm [2]: 6%
% PHAKPA (F129L) Disease level P2 at 16 ppm [2]: 0%

CNC(=O)/C(=N/OC)c1cccc(C)c1CO/N=C(\C)c1c(F)cccc1C(F)(F)F [compound 345]
% PHAKPA (F129L) Disease level P6 at 4 ppm [1]: 32%
% PHAKPA (F129L) Disease level P6 at 16 ppm [1]: 1%
% PHAKPA (F129L) Disease level P2 at 4 ppm [2]: 22%
% PHAKPA (F129L) Disease level P2 at 16 ppm [2]: 1%

CNC(=O)/C(=N/OC)c1cccc(C)c1CO/N=C(\C)c1c(F)ccc(F)c1OC(F)(F)F [compound 346]
% PHAKPA (F129L) Disease level P6 at 4 ppm [1]: 5%
% PHAKPA (F129L) Disease level P6 at 16 ppm [1]: 0%
% PHAKPA (F129L) Disease level P2 at 4 ppm [2]: 4%
% PHAKPA (F129L) Disease level P2 at 16 ppm [2]: 0%

CNC(=O)/C(=N/OC)c1cccc(C)c1CO/N=C(\C)c1ccc(OC(F)(F)F)cc1OC(F)(F)F [compound 349]
% PHAKPA (F129L) Disease level P6 at 4 ppm [1]: 97%
% PHAKPA (F129L) Disease level P6 at 16 ppm [1]: 35%
% PHAKPA (F129L) Disease level P2 at 4 ppm [2]: 97%
% PHAKPA (F129L) Disease level P2 at 16 ppm [2]: 50%

CNC(=O)/C(=N/OC)c1cccc(C)c1CO/N=C(\C)c1cccc(F)c1OC(F)(F)F [compound 354]
% PHAKPA (F129L) Disease level P6 at 4 ppm [1]: 21%
% PHAKPA (F129L) Disease level P6 at 16 ppm [1]: 4%
% PHAKPA (F129L) Disease level P2 at 4 ppm [2]: 17%
% PHAKPA (F129L) Disease level P2 at 16 ppm [2]: 2%

CNC(=O)/C(=N/OC)c1cccc(C)c1CO/N=C(\C)c1c(F)cc(Br)cc1OC(F)(F)F [compound 355]
% PHAKPA (F129L) Disease level P6 at 4 ppm [1]: 48%
% PHAKPA (F129L) Disease level P6 at 16 ppm [1]: 4%
% PHAKPA (F129L) Disease level P2 at 4 ppm [2]: 34%
% PHAKPA (F129L) Disease level P2 at 16 ppm [2]: 7%

CNC(=O)/C(=N/OC)c1cccc(C)c1CO/N=C(\C)c1c(F)cc(F)cc1C(F)(F)F [compound 357]
% PHAKPA (F129L) Disease level P6 at 4 ppm [1]: 18%
% PHAKPA (F129L) Disease level P6 at 16 ppm [1]: 0%
% PHAKPA (F129L) Disease level P2 at 4 ppm [2]: 13%
% PHAKPA (F129L) Disease level P2 at 16 ppm [2]: 1%

CNC(=O)/C(=N/OC)c1cccc(C)c1CO/N=C(\C)c1c(F)cc(Br)cc1C(F)(F)F [compound 358]
% PHAKPA (F129L) Disease level P6 at 4 ppm [1]: 83%
% PHAKPA (F129L) Disease level P6 at 16 ppm [1]: 18%
% PHAKPA (F129L) Disease level P2 at 4 ppm [2]: 77%
% PHAKPA (F129L) Disease level P2 at 16 ppm [2]: 17%

CNC(=O)/C(=N/OC)c1cccc(C)c1CO/N=C(\C)c1c(F)ccc(F)c1C(F)(F)F [compound 359]
% PHAKPA (F129L) Disease level P6 at 4 ppm [1]: 100%
% PHAKPA (F129L) Disease level P6 at 16 ppm [1]: 43%
% PHAKPA (F129L) Disease level P2 at 4 ppm [2]: 100%
% PHAKPA (F129L) Disease level P2 at 16 ppm [2]: 37%

CO/N=C(/C(=O)OC)c1cccc(C)c1CO/N=C(\C)c1c(F)cc(F)cc1C(F)(F)F [compound 360]
% PHAKPA (F129L) Disease level P6 at 4 ppm [1]: 80%
% PHAKPA (F129L) Disease level P6 at 16 ppm [1]: 5%
% PHAKPA (F129L) Disease level P2 at 4 ppm [2]: 53%
% PHAKPA (F129L) Disease level P2 at 16 ppm [2]: 9%

CO/N=C(/C(=O)OC)c1cccc(C)c1CO/N=C(\C)c1c(F)cc(F)cc1OC(F)(F)F [compound 361]
% PHAKPA (F129L) Disease level P6 at 4 ppm [1]: 88%
% PHAKPA (F129L) Disease level P6 at 16 ppm [1]: 31%
% PHAKPA (F129L) Disease level P2 at 4 ppm [2]: 80%
% PHAKPA (F129L) Disease level P2 at 16 ppm [2]: 18%

CNC(=O)/C(=N/OC)c1cccc(C)c1CO/N=C(\C)c1ccc(OC(F)(F)F)cc1C(F)(F)F [compound 363]
% PHAKPA (F129L) Disease level P6 at 4 ppm [1]: 25%
% PHAKPA (F129L) Disease level P6 at 16 ppm [1]: 2%
% PHAKPA (F129L) Disease level P2 at 4 ppm [2]: 29%
% PHAKPA (F129L) Disease level P2 at 16 ppm [2]: 1%

CO/N=C(/C(=O)OC)c1cccc(C)c1CO/N=C(\C)c1c(F)cccc1C(F)(F)F [compound 365]
% PHAKPA (F129L) Disease level P6 at 4 ppm [1]: 97%
% PHAKPA (F129L) Disease level P6 at 16 ppm [1]: 43%
% PHAKPA (F129L) Disease level P2 at 4 ppm [2]: 77%
% PHAKPA (F129L) Disease level P2 at 16 ppm [2]: 15%

CO/N=C(/C(=O)OC)c1cccc(C)c1CO/N=C(\C)c1c(F)ccc(F)c1OC(F)(F)F [compound 366]
% PHAKPA (F129L) Disease level P6 at 4 ppm [1]: 83%
% PHAKPA (F129L) Disease level P6 at 16 ppm [1]: 12%
% PHAKPA (F129L) Disease level P2 at 4 ppm [2]: 53%
% PHAKPA (F129L) Disease level P2 at 16 ppm [2]: 13%

CO/N=C(/C(=O)OC)c1cccc(C)c1CO/N=C(\C)c1c(F)cc(Br)cc1C(F)(F)F [compound 368]
% PHAKPA (F129L) Disease level P6 at 4 ppm [1]: 90%
% PHAKPA (F129L) Disease level P6 at 16 ppm [1]: 73%
% PHAKPA (F129L) Disease level P2 at 4 ppm [2]: 83%
% PHAKPA (F129L) Disease level P2 at 16 ppm [2]: 47%

CNC(=O)/C(=N/OC)c1cccc(C)c1CO/N=C(\C)c1ccccc1C(C)(F)F [compound 372]
% PHAKPA (F129L) Disease level P6 at 4 ppm [1]: 85%
% PHAKPA (F129L) Disease level P6 at 16 ppm [1]: 16%
% PHAKPA (F129L) Disease level P2 at 4 ppm [2]: 85%
% PHAKPA (F129L) Disease level P2 at 16 ppm [2]: 26%

CO/N=C(/C(=O)OC)c1cccc(C)c1CO/N=C(\C)c1ccc(OC)cc1OC(F)(F)F [compound 373]
% PHAKPA (F129L) Disease level P6 at 4 ppm [1]: 100%
% PHAKPA (F129L) Disease level P6 at 16 ppm [1]: 38%
% PHAKPA (F129L) Disease level P2 at 4 ppm [2]: 77%
% PHAKPA (F129L) Disease level P2 at 16 ppm [2]: 27%

CNC(=O)/C(=N/OC)c1cccc(C)c1CO/N=C(\C)c1ccc(Cl)cc1OC(F)(F)F [compound 375]
% PHAKPA (F129L) Disease level P6 at 4 ppm [1]: 40%
% PHAKPA (F129L) Disease level P6 at 16 ppm [1]: 6%
% PHAKPA (F129L) Disease level P2 at 4 ppm [2]: 47%
% PHAKPA (F129L) Disease level P2 at 16 ppm [2]: 8%
